Measured values: US20070020747A1, “Composition for eliminating ethidium bromide and use thereof” (priority 2005, published 2007)

What was measured:
[1] = UV examination of EtBr elimination by oxidants in beakers under a four-tube UV lid (Example 2); details: oxidant 50 mM
Procedure: The appearance of the light source was a rectangular lid and the size was 35 cm×21 cm×15 cm. Four parallel 8 W UV tubes were implanted on the top of the lid.
5 beakers were prepared. Beaker 1 and 2 were added 100 μl LiNO3 and 9.9 ml EtBr, so that the final concentration of LiNO3 was 50 mM. Beaker 3 and 4 were added 100 μl NaNO2 and 9.9 ml EtBr, so that the final concentration of NaNO2 was 50 mM. Beaker 5 was added 10 ml EtBr only. The beakers 1, 3 and 5 were illuminated with UV, and the samples were collected in the time points 0, 15, 30, 60 and 120 minutes. The beakers 2 and 4 were not illuminated with UV, and the samples were collected in the time point 120 minutes.
Each sample was collected 25 μl from the experimental beaker in the selected time point. There were 17 samples totally. These samples were dropped on the center of a filter paper (diameter 2.5 cm) and illuminated with UV to observe the elimination of EtBr.

[2] = UV examination of EtBr elimination by oxidants in glass bottles (Example 1); details: for EtBr cleaning effect: oxidant 500 mM, not illuminated with UV; for EtBr cleaning effect / EtBr-eliminating effect (fluorescence): 60 min; for elimination of EtBr in solution (fluorescence): oxidant 20 or 500 mM, illuminated with UV for 60 minutes, groups 1-3
Procedure: 5M lithium nitrate (LiNO3), 5M sodium nitrite (NaNO2), and 5 µg/ml EtBr solutions were prepared.
7 glass bottles (about 7 ml of capacity) were prepared with solutions as described in Table 1. The bottle 1 was added 4 μl LiNO3 and 996 μl EtBr, wherein the final concentration of LiNO3 was 20 mM. The bottle 2 was added 100 μl LiNO3 and 900 μl EtBr, wherein the final concentration of LiNO3 was 500 mM. The bottle 3 was added 4 μl NaNO2 and 996 μl EtBr, wherein the final concentration of NaNO2 was 20 mM. The bottle 4 was added 100 μl NaNO2 and 900 μl EtBr, wherein the final concentration of NaNO2 was 500 mM. The bottle 5 was added 1 ml EtBr only. The bottle 6 was added 100 μl LiNO3 and 900 μl EtBr. The bottle 7 was added 100 μl NaNO2 and 900 μl EtBr.
The bottles 1-5 were illuminated with ultraviolet, which was 8 W and the wavelength was 180-280 nm. The samples were collected in the time point 0 and 60 minutes. The bottles 6 and 7 were not illuminated with ultraviolet and the samples were collected in the time point 60 minutes.
Except the wavelength of UV was changed to 280˜320 nm, all conditions were identical to group 1.
Except the wavelength of UV was changed to 320˜380 nm, all conditions were identical to group 1.
Each sample was collected 25 μl from the experimental bottle in the selected time point. There were 12 samples for each group, total 36 samples. These samples were dropped on the center of a filter paper (diameter 2.5 cm) and illuminated with UV to observe the elimination of EtBr.

[3] = after 60 minutes of UV illumination
[4] = after illuminating with UV for 15 minutes
[5] = oxidant plus UV with wavelength 180~280 nm, 8 W
[6] = oxidant plus UV with wavelength 320~380 nm
[7] = oxidant plus UV, second wavelength printed as 180~280 nm (group 2: 280~320 nm)

With `O=[N+]([O-])[O-].[Li+]` [lithium nitrate] the “destruction of EtBr (fluorescence)” value [1, 3] was “almost all of EtBr in the samples were destroyed”, the “destruction of EtBr (fluorescence)” value [1, 4] was “most EtBr” and the “destruction of EtBr (fluorescence)” value ([1]; no UV illumination, 120 min) was “not destroyed (or insignificantly destroyed)”. The EtBr cleaning effect [2] was “no or insignificant EtBr cleaning effect”, the “elimination of EtBr in solution (fluorescence)” value [2] was “completely destroyed” and the “EtBr-eliminating effect (fluorescence)” value [2, 5] was “strongest effect”. The “EtBr-eliminating effect (fluorescence)” value [2, 6] was “less effective” and the “EtBr-eliminating effect (fluorescence)” value [2, 7] was “modest effect”.

With `O=NO` [sodium nitrite] the “destruction of EtBr (fluorescence)” value [1, 3] was “almost all of EtBr in the samples were destroyed”, the “destruction of EtBr (fluorescence)” value [1, 4] was “most EtBr” and the “destruction of EtBr (fluorescence)” value ([1]; no UV illumination, 120 min) was “not destroyed (or insignificantly destroyed)”. The EtBr cleaning effect [2] was “no or insignificant EtBr cleaning effect”, the “elimination of EtBr in solution (fluorescence)” value [2] was “completely destroyed” and the “EtBr-eliminating effect (fluorescence)” value [2, 5] was “strongest effect”. For the same molecule, the “EtBr-eliminating effect (fluorescence)” value [2, 6] was “less effective” and the “EtBr-eliminating effect (fluorescence)” value [2, 7] was “modest effect”.
